Laboratory results as given in patent US7204984B2, “Acetyllysine-recognizing monoclonal antibody and process for producing the same” (Japan Science and Technology Corporation, priority 2001, dated 2007).
Non-standard residues stand in square brackets, D forms with d. Residues, ends and D or L forms follow the SMILES beside them. *: point of attachment. Asu = N[C@@H](CCCCCC(=O)O)C(=O)O; NHOH = ON*

Test system: histone-deacetylase
Test: Histone acetylation in cells treated with CHAP31 (Western blotting)
Format: cell-based
Settings: 1 μM, 24 hours, detected with Clone-1 antibody
Protocol: Five types of cells, B16/BL6, MOLT-4F, HeLa-S3, COS-1, and COS-7 were treated with, 1 μM of histone-deacetylase inhibitor, CHAP31, for 24 hours, and then cell lysates were prepared and developed on an electrophoresis, followed by detecting acetylated proteins using the above four antibodies as primary antibodies. In FIGS. 2, A, B, C, and D indicate the results of the detections using Clone-1, Clone-2, Clone-3, and Clone-4, respectively. The concentration of the primary antibodies used for the Western blotting were 107 ng/ml, 65.7 ng/ml, 258 ng/ml, and 158 ng/ml, respectively, and each of these concentration provide the same reactivity (A492=1) in ELISA where acetylated bovine serum albumin was immobilized. The total cell lysates were prepared from the cells (+) after subjecting each cell in the 1 μM CHAP31 treatment for 24 hours or the cells (−) without the treatment. In each lane, 20 μg of protein was loaded. Five types of cells being used were 1: B16/BL6, 2: MOLT-4F, 3: HeLa-S3, 4: COS-1, and 5: COS-7, respectively.

CC[C@H](C)[C@@H]1NC(=O)[C@@H](Cc2ccc(OC)cc2)NC(=O)[C@H](CCCCCC(=O)NO)NC(=O)[C@H]2CCCN2C1=O [CHAP31] (cyclo([Asu](NHOH)[dY](Me)I[dP]))
acetylation of histone: increased
